According to BigSolDB 2.1:

Brc1cnc2[nH]ccc2c1
solubility (mole fraction)
Settings | in acetonitrile | in dichloromethane | in ethanol | in ethyl acetate | in isopropanol | in methanol | in methyl acetate | in n-butanol | in n-hexane | in n-propanol
278.15 K | 0.00224 | 0.00083 | 0.0078 | 0.0161 | 0.00779 | 0.00595 | 0.0222 | 0.0154 | 0.00015 | 0.00916
283.15 K | 0.00304 | 0.00133 | 0.00958 | 0.0184 | 0.00915 | 0.00673 | 0.0253 | 0.0177 | 0.00017 | 0.0109
288.15 K | 0.00366 | 0.00216 | 0.0106 | 0.02 | 0.0106 | 0.00779 | 0.0279 | 0.0202 | 0.00019 | 0.0123
293.15 K | 0.00436 | 0.00333 | 0.0125 | 0.0225 | 0.0123 | 0.00882 | 0.0312 | 0.0228 | 0.00021 | 0.0145
298.15 K | 0.00519 | 0.00505 | 0.0139 | 0.0258 | 0.0143 | 0.00972 | 0.0347 | 0.0251 | 0.00024 | 0.0165
303.15 K | 0.00616 | 0.00749 | 0.0158 | 0.0286 | 0.0165 | 0.0111 | 0.0381 | 0.0278 | 0.00027 | 0.0188
308.15 K | 0.00726 | 0.0106 | 0.0177 | 0.0321 | 0.019 | 0.0124 | 0.0419 | 0.0312 | 0.0003 | 0.0209
313.15 K | 0.00858 | 0.0148 | 0.0198 | 0.0363 | 0.0217 | 0.0138 | 0.0459 | 0.0345 | 0.00034 | 0.0237
318.15 K | 0.00981 | – | 0.0222 | 0.0404 | 0.0252 | 0.0153 | 0.0509 | 0.0377 | 0.00036 | 0.0268
323.15 K | 0.0116 | – | 0.0245 | 0.045 | 0.0275 | 0.0171 | 0.0549 | 0.0415 | 0.00041 | 0.0298
